Reference: US20230348376A1 (TEIJIN PHARMA LIMITED, priority 2020, published 2023)
Values belong to the compound of their own block, whether it stands above or below them.

Legend:
human VDR = target: T1, human VDR (Homo sapiens, UniProt P11473); assay: Evaluation of VDR transcription activity in human osteoblasts (HOS cells), luciferase reporter; details: Activity (EC50, VDR transcription activity), HOS cells transfected with human VDR, human RXRα and DR3 luciferase reporter; 21 hours
T1 sequence (P11473 1-427): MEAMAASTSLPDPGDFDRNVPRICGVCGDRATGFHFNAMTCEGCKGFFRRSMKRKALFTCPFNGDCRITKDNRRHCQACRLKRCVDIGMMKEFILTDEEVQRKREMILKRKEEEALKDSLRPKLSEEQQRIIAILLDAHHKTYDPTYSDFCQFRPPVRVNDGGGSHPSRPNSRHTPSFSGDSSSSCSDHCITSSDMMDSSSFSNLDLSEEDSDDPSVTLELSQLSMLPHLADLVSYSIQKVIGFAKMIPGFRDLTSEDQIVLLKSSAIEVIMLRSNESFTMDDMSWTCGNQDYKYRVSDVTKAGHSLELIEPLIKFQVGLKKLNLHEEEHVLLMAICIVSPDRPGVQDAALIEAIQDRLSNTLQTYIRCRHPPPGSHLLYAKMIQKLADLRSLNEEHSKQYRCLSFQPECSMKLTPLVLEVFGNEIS
T1 sequence (P19793 1-462 partner): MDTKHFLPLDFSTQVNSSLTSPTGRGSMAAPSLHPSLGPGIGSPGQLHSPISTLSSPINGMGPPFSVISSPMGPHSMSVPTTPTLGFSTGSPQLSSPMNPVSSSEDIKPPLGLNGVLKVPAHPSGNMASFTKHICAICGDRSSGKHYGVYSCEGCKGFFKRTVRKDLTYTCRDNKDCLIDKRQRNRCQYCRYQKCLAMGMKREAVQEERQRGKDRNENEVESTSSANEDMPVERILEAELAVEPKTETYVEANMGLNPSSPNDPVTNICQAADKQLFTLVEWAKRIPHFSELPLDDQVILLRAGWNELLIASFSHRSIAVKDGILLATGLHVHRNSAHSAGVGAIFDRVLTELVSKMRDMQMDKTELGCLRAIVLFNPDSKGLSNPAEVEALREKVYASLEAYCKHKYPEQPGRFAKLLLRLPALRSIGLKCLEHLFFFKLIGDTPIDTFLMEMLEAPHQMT

[1] = tested on: rat oligodendrocyte progenitor cells; assay: Promotive activity of rat oligodendrocyte progenitor cell differentiation-2 (immunostaining of MBP); format: cell-based; details: vitamin D derivative 2 μM, T3 30 nM, 4 days
Procedure: The promotive activity of oligodendrocyte progenitor cell (OPC) differentiation of the vitamin D derivatives was evaluated by immunostaining of MBP.
Subsequently, oligodendrocyte progenitor cell separation medium was added to the flask, and the mixture was similarly shaken for about 22 hours (37° C., 200 rpm), and the supernatant was collected to prepare oligodendrocyte progenitor cells.

[2] = Evaluation of brain penetration in mice (blood and brain concentration at brain Cmax); format: in vivo, mouse; details: 1 mg/kg single oral dose, C57BL/6J mice; for Concentration in blood (mean ± SD) at brain Cmax / Concentration in brain (mean ± SD) at brain Cmax: n=3; for Kp: male, C57BL/6J, mouse, brain/plasma, po, 1 mg/kg, read-out: Concentration in brain/in blood ratio at brain Cmax
Procedure: The administration solution was administered orally to C57BL/6J mice (8 weeks old, male, n=3) at a single dose (1 mg/kg). Mice were euthanized at 6 points of 0.25, 0.5, 1, 2, 4, and 8 hours after administration, and plasma and brain sampling were performed. After preparing a homogenate from the collected brain using Tissue Lyser II (QIAGEN #85300), acetonitrile was added to the homogenate and the homogenate was centrifuged (12000 rpm, 5 minutes) to extract the administered test compound contained in the brain. Similarly, the plasma was subjected to addition of acetonitrile and centrifugal separation to extract the administered test compound contained in the plasma. Each extracted sample was subjected to measurement of the concentration of administered test compound using LC/MS/MS (SHIMADZU UFLC/MS/MS (8050)).
Test 2 [0.2 mg/kg Administration Study] […] The administration solution was administered orally to C57BL/6J mice (8 weeks old, male, n=3) at a single dose (0.2 mg/kg). Mice were euthanized at 6 points of 0.25, 0.5, 1, 2, 4, and 8 hours after administration, and plasma and brain sampling were performed. After preparing a homogenate from the collected brain using Tissue Lyser II (QIAGEN #85300), acetonitrile was added to the homogenate and the homogenate was centrifuged (12000 rpm, 5 minutes) to extract the administered compound contained in the brain. Similarly, the plasma was subjected to addition of acetonitrile and centrifugal separation to extract the administered test compound contained in the plasma. Each extracted sample was subjected to measurement of the concentration of administered test compound using LC/MS/MS (SHIMADZU UFLC/MS/MS (8050)).

EC50 (human VDR): 1 to 10 nM
Concentration in blood (mean ± SD) at brain Cmax [2]: 248 ± 28 nM
Concentration in brain (mean ± SD) at brain Cmax [2]: 852 ± 48 pmol/g
Kp [2]: 3.44
SMILES: C=C1[C@H](O)CC(=C/C=C2\CCC[C@]3(C)[C@@H]([C@H](C)CN4CC[C@H](C(F)F)C4)CC[C@@H]23)C[C@H]1O [Compound B023, (1R,3R)-5-(2-((1R,3aS,7aR,E)-1-((S)-1-((S)-3-(difluoromethyl)pyrrolidin-1-yl)propan-2-yl)-7a-methyloctahydro-4H-inden-4-ylidene)ethylidene)-2-methylenecyclohexane-1,3-diol]
Mean (number of MBP-positive cells/number of Hoechst33342-positive cells) ([1]; Test 1): 0.50

Concentration in blood (mean ± SD) at brain Cmax [2]: 78 ± 15 nM
Concentration in brain (mean ± SD) at brain Cmax [2]: 67 ± 9 pmol/g
Kp [2]: 0.86
SMILES: C[C@H](CN1CC[C@@H](OCC(F)F)C1)[C@H]1CC[C@H]2/C(=C/C=C3C[C@@H](O)C[C@H](O)C3)CCC[C@]12C [Compound B058, (1R,3R)-5-(2-((1R,3aS,7aR,E)-1-((S)-1-((R)-3-(2,2-difluoroethoxy)pyrrolidin-1-yl)propan-2-yl)-7a-methyloctahydro-4H-inden-4-ylidene)ethylidene)cyclohexane-1,3-diol]
Mean (number of MBP-positive cells/number of Hoechst33342-positive cells) ([1]; Test 2): 0.49

SMILES: C[C@H](CCN1CCCC[C@H]1C)[C@H]1CC[C@H]2/C(=C/C=C3C[C@@H](O)C[C@H](O)C3)CCC[C@]12C [Compound G018, (1R,3R)-5-(2-((1R,3aS,7aR,E)-7a-methyl-1-((R)-4-((R)-2-methylpiperidin-1-yl)butan-2-yl)octahydro-4H-inden-4-ylidene)ethylidene)cyclohexane-1,3-diol]
Mean (number of MBP-positive cells/number of Hoechst33342-positive cells) ([1]; Test 6): 0.48

SMILES: C[C@H](CN1CCC[C@@H]1C(C)(C)O)[C@H]1CC[C@H]2/C(=C/C=C3C[C@@H](O)C[C@H](O)C3)CCC[C@]12C [Compound G013, (1R,3R)-5-(2-((1R,3aS,7aR,E)-1-((S)-1-((R)-2-(2-hydroxypropan-2-yl)pyrrolidin-1-yl)propan-2-yl)-7a-methyloctahydro-4H-inden-4-ylidene)ethylidene)cyclohexane-1,3-diol]
Mean (number of MBP-positive cells/number of Hoechst33342-positive cells) ([1]; Test 6): 0.55

SMILES: C=C1[C@H](O)CC(=C/C=C2\CCC[C@]3(C)[C@@H]([C@H](C)CN4CCC[C@H]4C(C)(C)O)CC[C@@H]23)C[C@H]1O [Compound H014, (1R,3R)-5-(2-((1R,3aS,7aR,E)-1-((S)-1-((S)-2-(2-hydroxypropan-2-yl)pyrrolidin-1-yl)propan-2-yl)-7a-methyloctahydro-4H-inden-4-ylidene)ethylidene)-2-methylenecyclohexane-1,3-diol]
Mean (number of MBP-positive cells/number of Hoechst33342-positive cells) ([1]; Test 8): 0.37

SMILES: C[C@H](CN1CCCCC1(C)C)[C@H]1CC[C@H]2/C(=C/C=C3C[C@@H](O)C[C@H](O)C3)CCC[C@]12C [Compound G003, (1R,3R)-5-(2-((1R,3aS,7aR,E)-1-((S)-1-(2,2-dimethylpiperidin-1-yl)propan-2-yl)-7a-methyloctahydro-4H-inden-4-ylidene)ethylidene)cyclohexane-1,3-diol]
Mean (number of MBP-positive cells/number of Hoechst33342-positive cells) ([1]; Test 3): 0.47

SMILES: C[C@H](CN1CCN(C)C[C@@H]1C)[C@H]1CC[C@H]2/C(=C/C=C3C[C@@H](O)C[C@H](O)C3)CCC[C@]12C [Compound G011, (1R,3R)-5-(2-((1R,3aS,7aR,E)-1-((S)-1-((S)-2,4-dimethylpiperazin-1-yl)propan-2-yl)-7a-methyloctahydro-4H-inden-4-ylidene)ethylidene)cyclohexane-1,3-diol]
Mean (number of MBP-positive cells/number of Hoechst33342-positive cells) ([1]; Test 5): 0.22

SMILES: C=C1[C@H](O)CC(=C/C=C2\CCC[C@]3(C)[C@@H]([C@H](C)CN4CCN(C)C[C@@H]4C)CC[C@@H]23)C[C@H]1O [Compound H011, (1R,3R)-5-(2-((1R,3aS,7aR,E)-1-((S)-1-((S)-2,4-dimethylpiperazin-1-yl)propan-2-yl)-7a-methyloctahydro-4H-inden-4-ylidene)ethylidene)-2-methylenecyclohexane-1,3-diol]
Mean (number of MBP-positive cells/number of Hoechst33342-positive cells) ([1]; Test 5): 0.30

SMILES: C=C1/C(=C\C=C2/CCC[C@]3(C)[C@@H]([C@H](C)CN4CCC[C@H]4C(C)(C)OC)CC[C@@H]23)C[C@@H](O)C[C@@H]1O [Compound F016, (1R,3S,Z)-5-(2-((1R,3aS,7aR,E)-1-((S)-1-((S)-2-(2-methoxypropan-2-yl)pyrrolidin-1-yl)propan-2-yl)-7a-methyloctahydro-4H-inden-4-ylidene)ethylidene)-4-methylenecyclohexane-1,3-diol]
Mean (number of MBP-positive cells/number of Hoechst33342-positive cells) ([1]; Test 8): 0.32

SMILES: C=C1/C(=C\C=C2/CCC[C@]3(C)[C@@H]([C@H](C)CN4CCC[C@@H]4C(C)(C)OC)CC[C@@H]23)C[C@@H](O)C[C@@H]1O [Compound F015, (1R,3S,Z)-5-(2-((1R,3aS,7aR,E)-1-((S)-1-((R)-2-(2-methoxypropan-2-yl)pyrrolidin-1-yl)propan-2-yl)-7a-methyloctahydro-4H-inden-4-ylidene)ethylidene)-4-methylenecyclohexane-1,3-diol]
Mean (number of MBP-positive cells/number of Hoechst33342-positive cells) ([1]; Test 8): 0.35

SMILES: C[C@H](CN1CCOCC12CC2)[C@H]1CC[C@H]2/C(=C/C=C3C[C@@H](O)C[C@H](O)C3)CCC[C@]12C [Compound G007, (1R,3R)-5-(2-((1R,3aS,7aR,E)-1-((S)-1-(7-oxa-4-azaspiro[2.5]octan-4-yl)propan-2-yl)-7a-methyloctahydro-4H-inden-4-ylidene)ethylidene)cyclohexane-1,3-diol]
Mean (number of MBP-positive cells/number of Hoechst33342-positive cells) ([1]; Test 4): 0.34

SMILES: C=C1[C@H](O)CC(=C/C=C2\CCC[C@]3(C)[C@@H]([C@H](C)CN4CCC[C@H]4C(C)(C)OC)CC[C@@H]23)C[C@H]1O [Compound H016, (1R,3R)-5-(2-((1R,3aS,7aR,E)-1-((S)-1-((S)-2-(2-methoxypropan-2-yl)pyrrolidin-1-yl)propan-2-yl)-7a-methyloctahydro-4H-inden-4-ylidene)ethylidene)-2-methylenecyclohexane-1,3-diol]
Mean (number of MBP-positive cells/number of Hoechst33342-positive cells) ([1]; Test 8): 0.30

SMILES: C[C@H](CCN1CCCC[C@@H]1C)[C@H]1CC[C@H]2/C(=C/C=C3C[C@@H](O)C[C@H](O)C3)CCC[C@]12C [Compound G017, (1R,3R)-5-(2-((1R,3aS,7aR,E)-7a-methyl-1-((R)-4-((S)-2-methylpiperidin-1-yl)butan-2-yl)octahydro-4H-inden-4-ylidene)ethylidene)cyclohexane-1,3-diol]
Mean (number of MBP-positive cells/number of Hoechst33342-positive cells) ([1]; Test 6): 0.52
